From paper PMC9085743, “Identification of oleoylethanolamide as an endogenous ligand for HIF-3α” (Nature Communications, 2022) come the findings set out here.

The assay has as its target T1, HIF-3α (Mus musculus, UniProt Q0VBL6).
T1 construct: gene Hif3a; SPR: MBP-HIF-3α-PAS-B (residues 235-363); crystal: HIF-3α residues 4-358 with ARNT residues 82–464; with ARNT (in the crystal, thermal shift, AS-MS, TR-FRET and HDX-MS; not in SPR)
The assay can be described thus: co-crystal structure ([…] Å), SPR, thermal shift, AS-MS, HDX-MS. The assay is classed as binding.

Broadly, the Kd is a measure of binding affinity in units of concentration.

T1 sequence (Q0VBL6 235-363): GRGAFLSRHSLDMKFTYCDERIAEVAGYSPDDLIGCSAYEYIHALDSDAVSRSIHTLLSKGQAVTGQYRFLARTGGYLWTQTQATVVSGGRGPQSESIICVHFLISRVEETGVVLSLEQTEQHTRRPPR

Regarding `CCCCCCCC/C=C\CCCCCCCC(=O)NCCO` [OEA, oleoylethanolamide], the dissociation constant (Kd) was about 14 µM.
